Source: US9994862B2, “Rice resistant to HPPD and ACCase inhibiting herbicides” (priority 2011, dated 2018)
Entries after “also recorded” stand apart in the source; their conditions may differ.

Key:
line PL1214418M2-80048 = test: Herbicide tolerance of the combined HPPD and ACCase line; parameters: species or system rice; conditions: in vivo
Excerpt: An early maturing group of plants was harvested as early as possible and the seeds planted in the greenhouse to help quickly advance to the F4 generation. Selections on the F3 plants were made by molecular markers flanking the HPPD tolerance mutation and native tolerance the ACCase functional mutation. Homozygous plants for all the selected genomic regions were advanced to the F5 generation. The F5 seed was confirmed to carry tolerance to ACCase herbicides and the HPPD herbicide mesotrione. Among the F5 lines PL1214418M2-80048 was selected due to a high seed yield and being homozygous for the ACCase tolerance mutation at position G2096S, the HPPD tolerance mutation, and the HPPD tolerance native gene. Seed from the line PL1214418M2-80048 was deposited at the ATCC and given a deposit number PTA-121362 (see Table 8).
Individuals with tolerance to both mesotrione and ACCase herbicides were selfed to produce F3 families and further selected for other important agronomic characters. The F3 lines were selfed and purified to derive a new line or variety with dual resistance to mesotrione and ACCase herbicides. Such lines are highly valuable as the use of both herbicides provides more complete and broad-spectrum weed control. […]

[1] = test system: HPPD tolerant line ML0831266-03093; test: ACCase herbicide field trial; format: in vivo, rice; conditions: for resistance to ACCase inhibiting herbicides compared with line P1003: 0.5x to 4x of label rate (fluazifop 210 gmai/ha, quizalofop 77 gmai/ha)
Method: (§1) FIG. 3A-3B is a photograph of line ML0831266-03093 that in addition to resistance to HPPD herbicides also has enhanced resistance to ACCase herbicides. […] Picture taken four weeks after herbicide application.
(§2) During the process of showing equivalent resistance of the ACCase tolerance in the new line PL1214418M2-73009, the HPPD tolerant line ML0831266-03093 was also evaluated for response to ACCase tolerance by application of the ACCase herbicides fluazifop at 0.5×, 1×, 2×, and 4× multiples of the label application rate (210 gmai/ha) and quizalofop at 0.5×, 1×, 2×, and 4× multiples of the label application rate (77 gmai/ha). In the field trials the resistant HPPD line ML0831266-03093 was planted in a row adjacent to the parent line P1003. […] By combining the HPPD tolerance with the ACCase tolerance the newly developed line PL1214418M2-73009, or any other new line and other derived lines because resistance is heritable and can be bred into lines e.g. progeny may carry a higher tolerance to ACCase inhibiting herbicides than lines developed from only the ACCase inhibitor resistant line ML0831265-01493.

line P1003 = test: ACCase herbicide field trial; format: in vivo, rice; conditions: four weeks after application
Method: as §1, §2

line PL1214418M2-73009 = test: ACCase herbicide field trial; format: in vivo, rice; conditions: for tolerance to ACCase herbicide compared with donor line ML0831265-01493: 0.5x to 4x of label rate (fluazifop 210 gmai/ha, quizalofop 77 gmai/ha)
Method: FIG. 2 is a graphical representation of a trait tolerance trial; the trial rice were planted, quizalofop was applied at the indicated rates about 5 weeks later (initiating tillering); the rice was evaluated for the percent of injury or damage as compared to unsprayed rice four weeks after herbicide application; line ML0831265-01493 is the ACCase resistant line and R0146 and P1003 are control lines; the line PL1214418M2-73009 was selected out of a cross between the HPPD tolerant line ML0831266-03093 (parent is P1003) and the ACCase tolerant line ML0831265-01493 (parent is R0146).
(§3) Another trial was conducted to confirm recovery of the ACCase inhibitor resistance from the G2096S mutation as in the line ML0831265-01493. In this trial the new line PL1214418-73009 with combined HPPD and ACCase tolerance was planted in a row along with other various lines including the original donor line ML0831265-01493 (planted in a plot), ML0831266-03093, P1003, R0146 parent line for ACCase tolerance. The lines were all tested with the ACCase herbicides fluazifop at 0.5×, 1×, 2×, and 4× multiples of the label application rate (210 gmai/ha) and quizalofop at 0.5×, 1×, 2×, and 4× multiples of the label application rate (77 gmai/ha).

[2] = test system: common grass weeds, such as barnyard grass; test: Grass weed control by ACCase herbicides in rice; format: in vivo; conditions: for control of common grass weeds in rice: in vivo
Excerpt: (§4) FIG. 5 illustrates grass weed control by the ACCase inhibitor quizalofop; control is shown by the prevalent grass weed (dead plants) being killed by quizalofop (77 gm ai/ha) while the resistant line ML0831265-01493 (live plants) were not injured.
Rice is tolerant to certain ACCase inhibitor herbicides, for example cyhalofop is registered for use in rice. However other ACCase herbicides kill or severely injure rice to varying degrees. […] The applied rates of both types of herbicides giving the weed control are well within the tolerance level of the respective ACCase and HPPD tolerant lines including the combined lines carrying tolerance to both HPPD and ACCase herbicides.

[3] = test system: ACCase resistant line ML0831265-01493; test: ACCase herbicide field trial; format: in vivo, rice; conditions: quizalofop 77 gm ai/ha
Method: as §4, §3
After screening a large mutant population, the line ML0831265-02283 also survived application of the ACCase herbicide quizalofop. The line was increased to obtain sufficient seed for larger trials to evaluate its tolerance to ACCase herbicides. […] Twenty one days after the herbicide was applied the plots were evaluated for percent injury caused to the rice based on control plots that had no herbicide application (FIG. 8). […]

line ML0831265-02283 = test: ACCase herbicide field trial; format: in vivo, rice
Excerpt: After screening a large mutant population, the line ML0831265-02283 also survived application of the ACCase herbicide quizalofop. The line was increased to obtain sufficient seed for larger trials to evaluate its tolerance to ACCase herbicides. The tolerance to ACCase herbicides in line ML0831265-02283 was validated by planting in the field plots (5 feet by 10 feet) of the line, the non-mutant parent line R0146, a second non-mutant line P1003, and the ACCase tolerant line ML0831265-01493. The ACCase herbicide quizalofop was applied at the four leaf stage at 0.5×, 1×, 2×, and 4× multiples of the labeled rate (77 gmai/ha). Twenty one days after the herbicide was applied the plots were evaluated for percent injury caused to the rice based on control plots that had no herbicide application (FIG. 8). The data confirms the tolerance of line ML0831265-02283 and it may even carry more tolerance than line ML0831265-01493 as shown by less injury at the 2× and 4× rates of quizalofop.

Structure (SMILES)	tolerance to the herbicide (line PL1214418M2-80048)	resistance to ACCase inhibiting herbicides compared with line P1003 [1]	killing of rice plants (line P1003; fluazifop alone 210 gmai/ha at initiation of tillering)	tolerance to ACCase herbicide compared with donor line ML0831265-01493 (line PL1214418M2-73009)	tolerance to fluazifop (line PL1214418M2-73009; in vivo)	control of common grass weeds in rice [2]	survival after quizalofop ([1]; 77 gm ai/ha, four weeks after application)	survival after quizalofop (line P1003; 77 gm ai/ha)	injury of the rice [3]	injury compared with line ML0831265-01493 (line ML0831265-02283; 2x and 4x of the labeled rate 77 gmai/ha, four leaf stage, 21 days after application)	survival in the screening of the mutant population (line ML0831265-02283; in vivo)	grass weed control ([2]; quizalofop 77 gm ai/ha, prevalent grass weed)
CC(Oc1ccc(Oc2ccc(C(F)(F)F)cn2)cc1)C(=O)O (stereo not drawn) [fluazifop]	tolerance	more resistance	no killing of the rice plants was observed	equivalent tolerance	tolerance	good control	–	–	–	–	–	–
CC(Oc1ccc(Oc2cnc3cc(Cl)ccc3n2)cc1)C(=O)O (stereo not drawn) [quizalofop]	–	more resistance	–	equivalent or better; also recorded: equivalent tolerance	–	good control	surviving	does not survive	not injured	less injury	survived	killed
